Common to all, as to assay type: functional
Assay [1] deals with Rattus norvegicus. The assay can be described thus: Antiallergic activity in anti-egg albumin homocytotropic antibody-sensitized Sprague-Dawley rat assessed as inhibition of passive cutaneous anaphylaxis reaction at 50 mg/kg, po administered 5 mins prior to antigen egg albumin challenge.
The subject of assay [2] is Rattus norvegicus. Nature of the assay: Antiallergic activity in anti-egg albumin homocytotropic antibody-sensitized Sprague-Dawley rat assessed as inhibition of passive cutaneous anaphylaxis reaction at 50 mg/kg, po administered 20 mins prior to antigen egg albumin challenge.
Assay [3] has as its system Rattus norvegicus. The assay can be described thus: Antiallergic activity in anti-egg albumin homocytotropic antibody-sensitized Sprague-Dawley rat assessed as inhibition of passive cutaneous anaphylaxis reaction at 50 mg/kg, po administered 60 mins prior to antigen egg albumin challenge.
Assay [4] deals with Rattus norvegicus. The assay can be described thus: Antiallergic activity in anti-egg albumin homocytotropic antibody-sensitized Sprague-Dawley rat assessed as inhibition of passive cutaneous anaphylaxis reaction at 0.1 mg/kg, iv administered at the time of antigen egg albumin challenge.
Assay [5] concerns Rattus norvegicus. Nature of the assay: Antiallergic activity in anti-egg albumin homocytotropic antibody-sensitized Sprague-Dawley rat assessed as inhibition of passive cutaneous anaphylaxis reaction at 1 mg/kg, iv administered at the time of antigen egg albumin challenge.

As to `CCOC(=O)C(=O)Nc1ccc(C)c(NC(=O)C(=O)OCC)c1`, the inhibition in vivo at 50 mg/kg in assay [1] was determined as 17%; in assay [2], 38%; in assay [3] it was 12%.
As for `CCOC(=O)C(=O)Nc1cc(S(C)(=O)=O)cc(NC(=O)C(=O)OCC)c1Cl`, the inhibition in vivo at 50 mg/kg in assay [1], in assay [2] and in assay [3] was 0% throughout.
Consider `CCOC(=O)C(=O)Nc1cc(C#N)c(Cl)c(NC(=O)C(=O)OCC)c1`, for which the values for the inhibition in vivo at 50 mg/kg in assay [1], in assay [2] and in assay [3] were 100%, 20% and 0%, respectively.
In the same order, the values of `CCOC(=O)C(=O)Nc1cc(C(F)(F)F)cc(NC(=O)C(=O)OCC)c1C#N` are 50%, 25% and 0%.
In the case of `N#Cc1ccc(NC(=O)C(=O)O)cc1NC(=O)C(=O)O`, the inhibition in vivo at 0.1 mg/kg in assay [4] was found to be 8%. For the same compound, the inhibition in vivo at 1 mg/kg in assay [5] was found to be 87%.
In the same order, the values of `NC(=O)c1cc(NC(=O)C(=O)O)cc(NC(=O)C(=O)O)c1` are 17% and 91%.
`CCOC(=O)C(=O)Nc1cccc(NC(=O)C(=O)OCC)c1C`: the values for the inhibition in vivo at 50 mg/kg in assay [1] and in assay [2] were 28% and 53%, respectively.
As for `CCOC(=O)C(=O)Nc1cc(NC(=O)C(=O)OCC)c(Cl)c(-c2ccccc2)c1`, the inhibition in vivo at 50 mg/kg in assay [1] amounted to 72%; in assay [2], 10%; in assay [3], 51%.
With `CCOC(=O)C(=O)Nc1cc(C(N)=O)cc(NC(=O)C(=O)OCC)c1Cl`, the inhibition in vivo at 50 mg/kg in assay [1] is 85%; in assay [2] it was 49%.
Take `CCOC(=O)C(=O)Nc1cc(C(F)(F)F)cc(NC(=O)C(=O)OCC)c1Cl`: the inhibition in vivo at 50 mg/kg in assay [1] was 10%; in assay [2], 10%; in assay [3] it was 4%.
Regarding `CCOC(=O)C(=O)Nc1cc(NC(=O)C(=O)OCC)c(Cl)cc1Cl`, the inhibition in vivo at 50 mg/kg stood at 50% in assay [2] and 25% in assay [3].
The corresponding values for `CCOC(=O)C(=O)Nc1cc(NC(=O)C(=O)OCC)c([N+](=O)[O-])cc1[N+](=O)[O-]` are 17% and 9%.
For `CCOC(=O)C(=O)Nc1ccc(F)c(NC(=O)C(=O)OCC)c1`, the inhibition in vivo at 50 mg/kg in assay [1] was determined as 74%; in assay [2] it was 64%; in assay [3], 18%.
As for `O=C(O)C(=O)Nc1cc(CS(=O)O)cc(NC(=O)C(=O)O)c1Cl`, in assay [4], the inhibition in vivo at 0.1 mg/kg came out at 10%. Further, the inhibition in vivo at 1 mg/kg in assay [5] was 85%.
For the compound `CCOC(=O)C(=O)Nc1cc(-c2ccccc2)cc(NC(=O)C(=O)OCC)c1Cl`, the inhibition in vivo at 50 mg/kg in assay [1] and in assay [2] was 25% each time.
Regarding `CCOC(=O)C(=O)Nc1c([N+](=O)[O-])cc([N+](=O)[O-])c(NC(=O)C(=O)OCC)c1Cl`, the results for the inhibition in vivo at 50 mg/kg in assay [2] and in assay [3] were 25% and 0%, respectively.
With `CCOC(=O)C(=O)Nc1cccc(NC(=O)C(=O)OCC)c1OC`, the figures for the inhibition in vivo at 50 mg/kg in assay [1], in assay [2] and in assay [3] were 72%, 11% and 22%, respectively.
For `COc1ccc(NC(=O)C(=O)O)cc1NC(=O)C(=O)O`, in assay [4], the inhibition in vivo at 0.1 mg/kg amounted to 0%. In addition, the inhibition in vivo at 1 mg/kg in assay [5] turned out to be 100%.
For the compound `CCOC(=O)C(=O)Nc1cccc(NC(=O)C(=O)OCC)c1F`, the inhibition in vivo at 50 mg/kg in assay [3] amounted to 0%.
Take `N#Cc1cc(NC(=O)C(=O)O)ccc1NC(=O)C(=O)O`: the inhibition in vivo at 1 mg/kg in assay [5] was 45%.
For the compound `CCOC(=O)C(=O)Nc1cc(NC(=O)C(=O)OCC)cc([N+](=O)[O-])c1`, the inhibition in vivo at 50 mg/kg was found to be 0% in assay [1], 0% in assay [2] and 6% in assay [3].
Consider `O=C(O)C(=O)Nc1ccc(NC(=O)C(=O)O)cc1`, for which the inhibition in vivo at 1 mg/kg in assay [5] was 18%.
On to `O=C(O)C(=O)Nc1cc(Cl)c(NC(=O)C(=O)O)cc1Cl`, for which the inhibition in vivo at 1 mg/kg in assay [5] worked out at 73%.

The record behind these values is ChEMBL document CHEMBL3244076, “N,N'-(Phenylene)dioxamic acids and their esters as antiallergy agents” (1978).
